Assay results published in ChEMBL document CHEMBL3616390, “Design and synthesis of N-[6-(Substituted Aminoethylideneamino)-2-Hydroxyindan-1-yl]arylamides as selective and potent muscarinic M₁ agonists” (Bioorg Med Chem Lett, 2015).
Active and inactive are the calls of the source. No cut-off for these calls is given here.

What was measured:
[1] = molecular target: T1, Muscarinic acetylcholine receptor M1 (Homo sapiens, UniProt P11229); experiment: Agonist activity at human muscarinic M1 receptor expressed in CHO cells after 30 mins by GTPgamma35S binding assay; assay type: functional, cell-based
T1 sequence (P11229 whole entry): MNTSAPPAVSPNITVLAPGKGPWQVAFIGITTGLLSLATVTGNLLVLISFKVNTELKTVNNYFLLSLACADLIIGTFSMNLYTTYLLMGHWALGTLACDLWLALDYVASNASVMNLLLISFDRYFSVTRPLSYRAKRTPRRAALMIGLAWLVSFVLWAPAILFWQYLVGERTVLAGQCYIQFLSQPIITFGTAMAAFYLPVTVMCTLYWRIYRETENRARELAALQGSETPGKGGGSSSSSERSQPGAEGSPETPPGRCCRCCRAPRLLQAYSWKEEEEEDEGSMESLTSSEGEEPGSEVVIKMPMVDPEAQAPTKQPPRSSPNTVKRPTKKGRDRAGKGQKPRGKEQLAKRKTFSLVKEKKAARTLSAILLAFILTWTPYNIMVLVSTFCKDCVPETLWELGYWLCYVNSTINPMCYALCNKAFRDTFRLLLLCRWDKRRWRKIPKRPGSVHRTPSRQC

[2] = molecular target: T2, Muscarinic acetylcholine receptor M2 (Homo sapiens, UniProt P08172); experiment: Agonist activity at human muscarinic M2 receptor expressed in CHO cells after 30 mins by GTPgamma35S binding assay; assay type: functional, cell-based
T2 sequence (P08172 whole entry): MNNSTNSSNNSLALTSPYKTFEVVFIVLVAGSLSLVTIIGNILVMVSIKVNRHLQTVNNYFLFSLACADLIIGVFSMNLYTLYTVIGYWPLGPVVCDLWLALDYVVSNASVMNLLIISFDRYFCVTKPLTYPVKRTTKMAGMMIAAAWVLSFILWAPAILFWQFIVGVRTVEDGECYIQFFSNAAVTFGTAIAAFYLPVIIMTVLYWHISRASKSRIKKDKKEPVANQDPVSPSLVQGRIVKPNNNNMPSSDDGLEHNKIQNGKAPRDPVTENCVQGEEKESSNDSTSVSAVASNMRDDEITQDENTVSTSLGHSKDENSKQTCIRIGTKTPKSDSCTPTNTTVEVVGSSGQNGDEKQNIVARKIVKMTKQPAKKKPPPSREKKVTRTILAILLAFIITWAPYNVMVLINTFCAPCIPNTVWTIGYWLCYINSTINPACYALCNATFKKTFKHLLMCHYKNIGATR

[3] = molecular target: T3, Muscarinic acetylcholine receptor M3 (Homo sapiens, UniProt P20309); experiment: Agonist activity at human muscarinic M3 receptor expressed in CHO cells after 30 mins by GTPgamma35S binding assay; assay type: functional, cell-based
Target sequence in this assay (P20309 whole entry): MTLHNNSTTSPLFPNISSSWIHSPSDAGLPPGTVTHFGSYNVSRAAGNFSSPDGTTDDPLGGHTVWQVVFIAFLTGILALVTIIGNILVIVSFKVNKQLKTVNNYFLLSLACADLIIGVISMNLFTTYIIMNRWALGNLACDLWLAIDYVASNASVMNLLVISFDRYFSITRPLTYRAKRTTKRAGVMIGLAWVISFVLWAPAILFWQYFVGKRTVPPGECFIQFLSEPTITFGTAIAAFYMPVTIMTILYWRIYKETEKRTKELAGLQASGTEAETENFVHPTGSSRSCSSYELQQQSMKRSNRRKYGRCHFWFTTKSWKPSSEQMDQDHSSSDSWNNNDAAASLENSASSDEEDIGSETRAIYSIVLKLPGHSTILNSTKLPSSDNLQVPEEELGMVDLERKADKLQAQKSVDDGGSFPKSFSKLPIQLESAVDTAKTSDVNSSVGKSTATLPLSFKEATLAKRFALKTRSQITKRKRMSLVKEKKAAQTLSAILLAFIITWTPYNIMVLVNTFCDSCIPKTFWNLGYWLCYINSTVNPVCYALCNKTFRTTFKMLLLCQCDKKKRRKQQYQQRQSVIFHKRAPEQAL

[4] = molecular target: T4, Muscarinic acetylcholine receptor M4 (Homo sapiens, UniProt P08173); experiment: Agonist activity at human muscarinic M4 receptor expressed in CHO cells after 30 mins by GTPgamma35S binding assay; assay type: functional, cell-based
T4 sequence (P08173 whole entry): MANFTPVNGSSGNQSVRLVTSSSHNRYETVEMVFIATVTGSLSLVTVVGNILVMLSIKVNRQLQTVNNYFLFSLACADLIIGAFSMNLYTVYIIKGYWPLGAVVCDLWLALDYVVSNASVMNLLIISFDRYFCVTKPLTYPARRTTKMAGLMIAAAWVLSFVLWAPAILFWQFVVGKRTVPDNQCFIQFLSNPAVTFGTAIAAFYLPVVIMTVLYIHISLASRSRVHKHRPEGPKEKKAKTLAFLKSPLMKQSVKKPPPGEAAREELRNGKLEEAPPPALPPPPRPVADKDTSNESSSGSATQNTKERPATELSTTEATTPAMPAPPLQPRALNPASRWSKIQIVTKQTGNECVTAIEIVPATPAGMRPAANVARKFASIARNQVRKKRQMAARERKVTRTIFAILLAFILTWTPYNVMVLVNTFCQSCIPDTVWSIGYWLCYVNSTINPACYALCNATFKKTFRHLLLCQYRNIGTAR

[5] = molecular target: T5, Muscarinic acetylcholine receptor M5 (Homo sapiens, UniProt P08912); experiment: Agonist activity at human muscarinic M5 receptor expressed in CHO cells after 30 mins by GTPgamma35S binding assay; assay type: functional, cell-based
T5 sequence (P08912 whole entry): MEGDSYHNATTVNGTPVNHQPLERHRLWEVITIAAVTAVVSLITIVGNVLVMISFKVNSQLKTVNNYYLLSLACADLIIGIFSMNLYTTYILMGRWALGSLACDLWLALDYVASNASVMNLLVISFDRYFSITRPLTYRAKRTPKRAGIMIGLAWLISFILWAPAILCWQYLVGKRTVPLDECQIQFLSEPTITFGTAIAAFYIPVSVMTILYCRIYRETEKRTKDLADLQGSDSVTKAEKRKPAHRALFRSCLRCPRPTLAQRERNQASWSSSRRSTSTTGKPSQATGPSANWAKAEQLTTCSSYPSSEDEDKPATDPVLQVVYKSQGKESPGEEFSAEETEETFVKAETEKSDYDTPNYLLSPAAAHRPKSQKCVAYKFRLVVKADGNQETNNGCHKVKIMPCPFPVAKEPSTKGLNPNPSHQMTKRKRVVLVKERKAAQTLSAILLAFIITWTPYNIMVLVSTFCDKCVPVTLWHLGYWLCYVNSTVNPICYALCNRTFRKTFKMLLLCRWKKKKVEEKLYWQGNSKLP

[6] = Oral bioavailability in rat; assay type: ADME, organism-based; conditions: in vivo
[7] = Drug uptake in rat whole brain at 10 mg/kg, po measured at 3 hrs; assay type: ADME, organism-based; conditions: read-out: Drug uptake
[8] = Partition coefficient, log D of the compound; assay type: physicochemical; conditions: octanol/water
[9] = molecular target: T6, Muscarinic acetylcholine receptor M1 (Homo sapiens) (UniProt P11229); experiment: Agonist activity at human muscarinic M1 receptor expressed in CHO cells after 30 mins by GTPgamma35S binding assay relative to oxotremorine-M; assay type: functional, cell-based
T6 sequence (whole entry): T1 sequence (P11229 whole entry)

[10] = molecular target: T7, Muscarinic acetylcholine receptor M2 (Homo sapiens) (UniProt P08172); experiment: Agonist activity at human muscarinic M2 receptor expressed in CHO cells after 30 mins by GTPgamma35S binding assay relative to oxotremorine-M; assay type: functional, cell-based
T7 sequence (whole entry): T2 sequence (P08172 whole entry)

[11] = molecular target: T8, Muscarinic acetylcholine receptor M4 (Homo sapiens) (UniProt P08173); experiment: Agonist activity at human muscarinic M4 receptor expressed in CHO cells after 30 mins by GTPgamma35S binding assay relative to oxotremorine-M; assay type: functional, cell-based
T8 sequence (whole entry): T4 sequence (P08173 whole entry)

[12] = Oral bioavailability in monkey; assay type: ADME, organism-based, Macaca mulatta; conditions: rhesus monkey, in vivo
[13] = tested on: Rattus norvegicus; experiment: AUC (0 to 6 hrs) in rat at 10 mg/kg, po; assay type: ADME, organism-based; parameters: time < 6 hr, dose 10 mg/kg, route oral; conditions: in vivo
[14] = tested on: Rattus norvegicus; experiment: Cognitive enhancement activity in po dosed rat by 8-arm radial maze test; assay type: functional; conditions: read-out: MED
[15] = Dissociation constant, pKa of the compound; assay type: physicochemical
[16] = Drug degradation in rat plasma assessed as formamidine hydrolysis after 4 hrs; assay type: ADME, cell-free; conditions: read-out: Drug degradation
[17] = tested on: Rattus norvegicus; experiment: AUC (0 to 8 hrs) in rat at 10 mg/kg, po; assay type: ADME, organism-based; parameters: time < 8 hr, dose 10 mg/kg, route oral; conditions: in vivo
[18] = molecular target: T3, Muscarinic acetylcholine receptor M3; experiment: Agonist activity at human muscarinic M3 receptor expressed in CHO cells after 30 mins by GTPgamma35S binding assay relative to acetylcholine; assay type: functional, cell-based
Target sequence in this assay (P20309 whole entry, looked up): as the sequence (P20309 whole entry) above

[19] = molecular target: T8, Muscarinic acetylcholine receptor M4 (Homo sapiens); experiment: Agonist activity at human muscarinic M4 receptor expressed in CHO cells after 30 mins by GTPgamma35S binding assay relative to acetylcholine; assay type: functional, cell-based
[20] = molecular target: T9, Muscarinic acetylcholine receptor M5 (Homo sapiens) (UniProt P08912); experiment: Agonist activity at human muscarinic M5 receptor expressed in CHO cells after 30 mins by GTPgamma35S binding assay relative to acetylcholine; assay type: functional, cell-based
T9 sequence (whole entry): T5 sequence (P08912 whole entry)

[21] = molecular target: T7, Muscarinic acetylcholine receptor M2 (Homo sapiens); experiment: Agonist activity at human muscarinic M2 receptor expressed in CHO cells at 280 nM after 30 mins by GTPgamma35S binding assay relative to control; assay type: functional, cell-based
[22] = molecular target: T7, Muscarinic acetylcholine receptor M2 (Homo sapiens); experiment: Agonist activity at human muscarinic M2 receptor expressed in CHO cells after 30 mins by GTPgamma35S binding assay relative to acetylcholine; assay type: functional, cell-based
[23] = tested on: Plasma; experiment: Metabolic stability in rat plasma; assay type: ADME, cell-free
[24] = tested on: Rattus norvegicus; experiment: Cognitive enhancement activity in rat at 30 mg/kg, po by spatial learning test; assay type: functional, organism-based

Row | SMILES | EC50 [1] | EC50 [2] | EC50 ([3]; cho) | EC50 [4] | EC50 ([5]; cho) | concentration at 3 h [7] | Efficacy [9] | Efficacy [10] | Efficacy [11] | Efficacy [18] | Efficacy [19] | Efficacy [20] | Efficacy [22] | further results
1 | C/C(=N\c1ccc2c(c1)[C@@H](NC(=O)c1ccc(-c3ccccc3)cc1)[C@H](O)C2)N(C)Cc1ccc(F)cc1 | 22.8 nM | 693 nM | Not Active | 1060 nM | Not Active | 141 ng/g | 110% | 34.6% | 29.7% | – | – | – | – | bioavailability [6]: 32%; logD [8]: 2.3; bioavailability [12]: 46%; AUC [13]: 533 ng·h/g; minimal effective dose [14]: 1 mg/kg; pKa [15]: 8.3
2 | C/C(=N\c1ccc2c(c1)[C@@H](NC(=O)c1ccc(Br)cc1)[C@H](O)C2)N1CCCCC1 | – | – | – | – | – | – | – | – | – | – | – | – | – | metabolised at 4 h [16]: 5%
3 | C/C(=N\c1ccc2c(c1)[C@@H](NC(=O)c1ccc(Br)cc1)[C@H](O)C2)NCc1ccc(F)cc1 | 20.9 nM | 71.8 nM | Not Active | 115 nM | Not Active | 64 ng/g | 89.9% | 31.8% | 33.5% | – | – | – | – | AUC [17]: 634 ng·h/g; logD [8]: 2.01; pKa [15]: 8.49
4 | C/C(=N\c1ccc2c(c1)[C@@H](NC(=O)c1ccc(Br)cc1)[C@H](O)C2)Nc1ccc(F)cc1 | 51 nM | 749 nM | Not Active | 1110 nM | Not Active | 147 ng/g | 79.4% | 25.2% | 23.1% | – | – | – | – | AUC [17]: 1369 ng·h/g; pKa [15]: 8.2
5 | CC(=O)OCC[N+](C)(C)C | – | – | – | – | – | – | – | – | – | 117% | 93.4% | 110% | – | –
6 | O=C(N[C@@H]1c2cc(/N=C/N3CCCC3)ccc2C[C@H]1O)c1ccc(Br)cc1 | – | – | – | – | – | – | – | – | – | – | – | – | – | metabolised at 4 h [16]: 50%; Emax [21]: 80%
7 | C#CCO[C@H]1CN2CCC1CC2 [TALSACLIDINE] | 820 nM | 849 nM | – | 844 nM | – | – | – | – | – | 26.1% | 22.2% | 23.7% | 94.4% | EC50 ([3]; read-out: EC50): 2700 nM; EC50 ([5]; read-out: EC50): 422 nM
8 | C/C(=N\c1ccc2c(c1)[C@@H](NC(=O)c1ccc(Br)cc1)[C@H](O)C2)N(C)c1ccc(F)cc1 | 118 nM | – | Not Active | – | Not Active | 891 ng/g | 31.5% | < 20% | < 20% | – | – | – | – | AUC [17]: 4681 ng·h/g
9 | CCn1nnc(C2=CCCN(C)C2)n1 | – | – | – | – | – | – | – | – | – | < 20% | < 20% | < 20% | 49.2% | –
10 | CO/N=C(\C#N)[C@H]1CN2CCC1CC2 [SABCOMELINE] | 63.6 nM | 62.1 nM | – | 214 nM | – | – | – | – | – | 28.3% | 21.3% | 38.9% | 87.7% | EC50 ([3]; read-out: EC50): 117 nM; EC50 ([5]; read-out: EC50): 123 nM
11 | C/C(=N\c1ccc2c(c1)[C@@H](NC(=O)c1ccc(F)cc1)[C@H](O)C2)N(C)Cc1ccc(F)cc1 | 392 nM | 242 nM | Not Active | 392 nM | Not Active | – | 76.6% | 43.6% | 28.4% | – | – | – | – | –
12 | CCCCCCOc1nsnc1C1=CCCN(C)C1 | – | – | – | – | – | – | – | – | – | < 20% | 48.7% | 25.9% | 83.5% | –
13 | C/C(=N\c1ccc2c(c1)[C@@H](NC(=O)c1ccc(C(F)(F)F)cc1)[C@H](O)C2)N(C)Cc1ccc(F)cc1 | 36 nM | 172 nM | Not Active | 393 nM | Not Active | – | 106% | 25.4% | 30.8% | – | – | – | – | –
14 | CN1CCCC/C1=N\c1ccc2c(c1)[C@@H](NC(=O)c1ccc(Br)cc1)[C@H](O)C2 | 80 nM | 24 nM | – | 113 nM | – | < 40 ng/g | – | – | – | – | 34% | – | 28% | Stability [23]: Stable; bioavailability [6]: 68%; Activity [24]: Active; AUC [17]: 506 ng·h/g; logD [8]: 1.04; pKa [15]: 9.9
15 | COc1ccc(CCN/C(C)=N/c2ccc3c(c2)[C@@H](NC(=O)c2ccc(Br)cc2)[C@H](O)C3)cc1 | 426 nM | 411 nM | Not Active | 1360 nM | Not Active | – | 84.5% | 38.9% | 29.9% | – | – | – | – | –
